Assays:
breast cancer 4T1 cells = test: Subcutaneous allograft tumor model of breast cancer 4T1 cells in BALB/c mice; type: in vivo
Source text: Mice: Female BALB/c mice aged 6-8 weeks were purchased from SHANGHAI SLAC LABORATORY ANIMAL CO. LTD. The assay began after the animals were adapted to the assay environment upon arrival. The animals were kept in IVC (independent ventilation system) cages (5 per cage) in an SPF animal room. All cages, padding and drinking water must be sterilized before use. All assay personnel should wear protective clothing and latex gloves when operating in the animal room. Cages, feed and drinking water were replaced twice a week. The feeding environment and lighting conditions were as follows: • Temperature: 20-26 °C • Humidity: 40-70% • Lighting period: 12 hours light, 12 hours no light • Cages: Made of polycarbonate, 300 mm × 180 mm × 150 mm. The padding was corn cobs, which was replaced twice a week. • Food: The assay animals had free access to food (dry pelleted food sterilized by irradiation) throughout the assay period. • Drinking water: Assay animals were free to drink sterile water. • Cage identification: The animal information card for each cage should indicate the number of animals in the cage, gender, strain, receipt date, dosing regimen, assay number, group and start date of the assay. • Animal identification: Assay animals were identified with ear tags.
Breast cancer cell 4T1 (source: Nanjing Cobioer Biotechnology Co., Ltd., catalog number: CBP60352) was maintained and passaged by INXMED (Nanjing) Co., Ltd. The cells were cultured in a monolayer in vitro in RPMI-1640 medium with 10% fetal bovine serum in a 37 °C, 5% CO2 incubator. Trypsin-EDTA was used for routine digestion and passage treatment two to three times a week. When the cells were in the exponential growth phase and the adherent confluence reached 80%-90%, the cells were harvested and plated.
0.1 mL of cell suspension containing 2 x 10^5 cells was subcutaneously inoculated on the right back of each mouse. When the tumor volume reached ~52 mm^3 (10th day after cell inoculation), the mice were randomly divided into groups for drug administration according to the tumor volume. Table 9. Dosing regimen of the test substance in 4T1 mouse transplant tumor model
The formulation and any modifications of this assay protocol had been assessed and approved by the IACUC of ArrayBridge. The use and welfare of assay animals were carried out in accordance with AAALAC regulations. The health status and mortality of animals were monitored daily, with routine checks including observation of tumor growth and the impact of drug treatment on the animals' daily behavior, such as activity, food and water intake (estimated by visual inspection), changes in body weight, physical signs, or any other abnormalities. The number of animal deaths and side effects in each group were recorded based on the number of animals in each group.
If the animal's health condition continued to deteriorate, or if the tumor volume exceeded 3,000 mm^3, or there was a serious disease or pain, euthanasia should be carried out. In the following cases, the veterinarian was notified and euthanasia was performed: obvious weight loss, i.e., weight loss greater than 20%; inability to freely eat and drink; the average tumor volume of the control group reached 2000 mm^3, the assay was terminated.
Tumor diameters were measured three times a week using calipers. The tumor volume was calculated using the formula: V = 0.5 × a × b^2, where a and b represent the long and short diameters of the tumor, respectively.
Based on the tumor volume on the first day after grouping, the tumor growth inhibition rate TGI (%) was calculated according to the following formula: TGI (%) = [1 - (average tumor volume of a treatment group - average tumor volume of the treatment group at the beginning of treatment) / (average tumor volume of the solvent control group - average tumor volume of the solvent control group at the beginning of treatment)] × 100%. […]

colon cancer CT26 cells = test: IN10018 and Docetaxel: microscopy and CRT/Annexin-V/PI flow cytometry; type: cell-based, mouse; conditions: 48 hours, IN10018 5 µM, Docetaxel 0.1 µM, alone or combined
Protocol: CT26 cells (Institute of Cell Biology, Chinese Academy of Sciences) were cultured with RPMI-1640 (Shanghai Basalmedia, catalog number: L210KJ, batch number: F210916) + 10% FBS (Gibco, catalog number: 10099-141c, batch number: 2158737cp), and passaged twice. When the cells were in good condition, they were placed in a 24-well plate. After 24 hours of cell spreading, four groups were set up. The first group was the control group, in which culture medium was added; the second group was IN10018 at a concentration of 5µM; the third group was Docetaxel (MCE, classification number: HY-B0011, batch number: 111613) with a concentration of 0.1µM; and the fourth group was the combination group of IN10018 (5 µM) and Docetaxel (0.1µM). The drugs were mixed and cultured in a 5 % CO2 incubator at 37°C for 48 hours.
After 48 hours of drug action, the cells were observed and photographed under a microscope. The photos were saved. Then the cells were collected for flow cytometry, and the cells were washed twice with flow buffer (PBS + 2% FBS). 0.5 µl of AF647 anti-calreticulin antibody (abcam, catalog number: ab196159, batch number: CR33676773) was added to each well, and fully mixed. The cells were incubated at 4 °C for 20 minutes in the dark. […] The mixture was incubated at room temperature in the dark for 15 minutes, and then analyzed on a flow cytometer.

`CC(=O)O[C@@]12CO[C@@H]1C[C@H](O)[C@@]1(C)C(=O)[C@H](O)C3=C(C)[C@@H](OC(=O)[C@H](O)[C@@H](NC(=O)OC(C)(C)C)c4ccccc4)C[C@@](O)([C@@H](OC(=O)c4ccccc4)[C@H]21)C3(C)C` [Docetaxel] was tested, and the “Tumor volume on day 0” value (breast cancer 4T1 cells; baseline at grouping (10th day after inoculation), mean ± standard error, 6 mice per group) was 51.1 ± 13.2 mm^3, the TGI (breast cancer 4T1 cells; day 21 after administration, vs control group, DTX 10 mg/kg i.p. BIW, IN10018 25 mg/kg p.o. QD, MAX10181 120 mg/kg p.o. BID) was 14.9% and the “Tumor volume on day 21” value (breast cancer 4T1 cells; day 21 after administration, DTX 10 mg/kg i.p. BIW, IN10018 25 mg/kg p.o. QD, MAX10181 120 mg/kg p.o. BID, mean ± standard error) was 1818.7 ± 644.0 mm^3. For the same molecule, the “cell status under a microscope” value (colon cancer CT26 cells) was “poor”.
